Organism: Rattus norvegicus
Assay: Open TG-GATES - Regimen: Single
Type: toxicity, organism-based, Sprague-Dawley
Design: regimen Single, gender Male, age 6 weeks
Conditions: in vivo, po, 300 mg/kg, route gavage, dose level Middle; for APTT / Bas / Eos / Fbg / Hb / Ht / Lym / MCH / MCHC / MCV / Mono / Neu / PT / Plat / RBC / Ret / WBC: tissue Blood; for KIDNEY_L / KIDNEY_R / KIDNEY_TOTAL: tissue Kidney; for LIVER: tissue Liver; for A/G / ALP / ALT / AST / BUN / CRE / Ca / Cl / DBIL / GLC / IP / K / LDH / Na / PL / RALB / TBIL / TC / TG / TP / gamma-GTP: tissue Plasma

O=C(O)c1cc(/N=N/c2ccc(S(=O)(=O)Nc3ccccn3)cc2)ccc1O [SULFASALAZINE]
TERMINAL_BW (3 h): 212.5 g
APTT (3 h): 18.5 s
Bas (3 h): 0%
Eos (3 h): 1%
Fbg (3 h): 215.2 mg/dL
Hb (3 h): 13.1 g/dL
Ht (3 h): 38.5%
Lym (3 h): 79%
MCH (3 h): 21.3 pg
MCHC (3 h): 34%
MCV (3 h): 62.6 fL
Mono (3 h): 2.6%
Neu (3 h): 16.2%
PT (3 h): 12.9 s
Plat (3 h): 115.5 x10_4/uL
RBC (3 h): 615.6 x10_4/ul
Ret (3 h): 6.7%
WBC (3 h): 93.5 x10_2/uL
KIDNEY_L (3 h): 1 g
KIDNEY_R (3 h): 0.9 g
KIDNEY_TOTAL (3 h): 1.9 g
LIVER (3 h): 9.7 g
A/G (3 h): 1.6
ALP (3 h): 897.6 IU/L
ALT (3 h): 36.6 IU/L
AST (3 h): 61.4 IU/L
BUN (3 h): 10.8 mg/dL
CRE (3 h): 0.4 mg/dL
Ca (3 h): 10.4 mg/dL
Cl (3 h): 102.2 meq/L
DBIL (3 h): 0.064 mg/dL
GLC (3 h): 198.2 mg/dL
IP (3 h): 9.6 mg/dL
K (3 h): 3.7 meq/L
LDH (3 h): 147.2 IU/L
Na (3 h): 140.6 meq/L
PL (3 h): 140 mg/dL
RALB (3 h): 3.3 g/dL
TBIL (3 h): 0.1 mg/dL
TC (3 h): 71.2 mg/dL
TG (3 h): 59.6 mg/dL
TP (3 h): 5.4 g/dL
gamma-GTP (3 h): 1 IU/L
TERMINAL_BW (6 h): 209.1 g
APTT (6 h): 18.9 s
Bas (6 h): 0%
Eos (6 h): 1%
Fbg (6 h): 230.2 mg/dL
Hb (6 h): 13.2 g/dL
Ht (6 h): 39%
Lym (6 h): 76.2%
MCH (6 h): 21.4 pg
MCHC (6 h): 34%
MCV (6 h): 63.1 fL
Mono (6 h): 3%
Neu (6 h): 19%
PT (6 h): 12.6 s
Plat (6 h): 115.4 x10_4/uL
RBC (6 h): 618.8 x10_4/ul
Ret (6 h): 7.4%
WBC (6 h): 81.1 x10_2/uL
KIDNEY_L (6 h): 1 g
KIDNEY_R (6 h): 0.9 g
KIDNEY_TOTAL (6 h): 1.9 g
LIVER (6 h): 9.8 g
A/G (6 h): 1.5
ALP (6 h): 961.6 IU/L
ALT (6 h): 33.8 IU/L
AST (6 h): 68.8 IU/L
BUN (6 h): 11.4 mg/dL
CRE (6 h): 0.4 mg/dL
Ca (6 h): 10.8 mg/dL
Cl (6 h): 102.2 meq/L
DBIL (6 h): 0.072 mg/dL
GLC (6 h): 190 mg/dL
IP (6 h): 9.5 mg/dL
K (6 h): 4 meq/L
LDH (6 h): 191.4 IU/L
Na (6 h): 140.8 meq/L
PL (6 h): 164.4 mg/dL
RALB (6 h): 3.4 g/dL
TBIL (6 h): 0.1 mg/dL
TC (6 h): 88.6 mg/dL
TG (6 h): 79.8 mg/dL
TP (6 h): 5.7 g/dL
gamma-GTP (6 h): 1 IU/L
TERMINAL_BW (9 h): 206.7 g
APTT (9 h): 19.2 s
Bas (9 h): 0%
Eos (9 h): 1%
Fbg (9 h): 233.2 mg/dL
Hb (9 h): 13 g/dL
Ht (9 h): 38.1%
Lym (9 h): 72.8%
MCH (9 h): 21.6 pg
MCHC (9 h): 34.1%
MCV (9 h): 63.2 fL
Mono (9 h): 2.6%
Neu (9 h): 22.6%
PT (9 h): 12.7 s
Plat (9 h): 118.9 x10_4/uL
RBC (9 h): 603 x10_4/ul
Ret (9 h): 7.5%
WBC (9 h): 81.5 x10_2/uL
KIDNEY_L (9 h): 0.9 g
KIDNEY_R (9 h): 0.9 g
KIDNEY_TOTAL (9 h): 1.8 g
LIVER (9 h): 8.6 g
A/G (9 h): 1.5
ALP (9 h): 961.6 IU/L
ALT (9 h): 32.4 IU/L
AST (9 h): 65.2 IU/L
BUN (9 h): 8.8 mg/dL
CRE (9 h): 0.3 mg/dL
Ca (9 h): 10.5 mg/dL
Cl (9 h): 103.2 meq/L
DBIL (9 h): 0.064 mg/dL
GLC (9 h): 198.6 mg/dL
IP (9 h): 9.3 mg/dL
K (9 h): 3.5 meq/L
LDH (9 h): 183 IU/L
Na (9 h): 140.8 meq/L
PL (9 h): 149.2 mg/dL
RALB (9 h): 3.3 g/dL
TBIL (9 h): 0.1 mg/dL
TC (9 h): 83.2 mg/dL
TG (9 h): 44.2 mg/dL
TP (9 h): 5.5 g/dL
gamma-GTP (9 h): 1.2 IU/L
TERMINAL_BW (24 h): 224.2 g
APTT (24 h): 17.4 s
Bas (24 h): 0%
Eos (24 h): 0.8%
Fbg (24 h): 233 mg/dL
Hb (24 h): 12.8 g/dL
Ht (24 h): 37.6%
Lym (24 h): 75%
MCH (24 h): 21.2 pg
MCHC (24 h): 34.2%
MCV (24 h): 62.1 fL
Mono (24 h): 2.6%
Neu (24 h): 19.8%
PT (24 h): 12.4 s
Plat (24 h): 122 x10_4/uL
RBC (24 h): 605.8 x10_4/ul
Ret (24 h): 6.5%
WBC (24 h): 104.1 x10_2/uL
KIDNEY_L (24 h): 1 g
KIDNEY_R (24 h): 1 g
KIDNEY_TOTAL (24 h): 1.9 g
LIVER (24 h): 10.6 g
A/G (24 h): 1.4
ALP (24 h): 992.4 IU/L
ALT (24 h): 40 IU/L
AST (24 h): 62.8 IU/L
BUN (24 h): 13.8 mg/dL
CRE (24 h): 0.4 mg/dL
Ca (24 h): 10.9 mg/dL
Cl (24 h): 101.8 meq/L
DBIL (24 h): 0.088 mg/dL
GLC (24 h): 187.2 mg/dL
IP (24 h): 7.2 mg/dL
K (24 h): 3.9 meq/L
LDH (24 h): 224 IU/L
Na (24 h): 140.6 meq/L
PL (24 h): 163.6 mg/dL
RALB (24 h): 3.3 g/dL
TBIL (24 h): 0.1 mg/dL
TC (24 h): 86.8 mg/dL
TG (24 h): 85.6 mg/dL
TP (24 h): 5.6 g/dL
gamma-GTP (24 h): 1.2 IU/L

Source: ChEMBL document CHEMBL3885861, “Open TG-GATES”
